Laboratory results taken from patent US9023844B2, “Heterocyclylpyri (mi) dinylpyrazole as fungicidals” (Bayer Intellectual Property GmbH, priority 2011, dated 2015).
Like-named read-outs stand apart in the source and are kept apart here.

Legend:
Phytophthora infestans = format: in vivo
[1] = Determination of log P values by HPLC on a reverse phase column (C18), EEC-Directive 79/831 Annex V.A8 (Methods A, B, C); format: physicochemical; conditions: for chromatographic logP: reverse phase C18 HPLC column
In short: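 Three C18 chromatographic methods following EEC-Directive 79/831 Annex V.A8 gave the logP values. Method C (UPLC, 2.1 mm column) ran at 40 °C and 0.8 mL/min with a 3.25 min 10–95% acetonitrile gradient. Methods A and B both ran at 55 °C and 2.0 mL/min, with gradients of 10–95% in 4.25 min and 5–95% in 1.70 min.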

Uromyces appendiculatus = assay: Example B: Uromyces test (beans) / preventive; format: in vivo; conditions: in vivo
Pyricularia oryzae = format: in vivo
Pyrenophora teres = assay: Example D: Pyrenophora test (barley) / preventive; format: in vivo
Leptosphaeria nodorum = assay: Example C: Leptosphaeria test (wheat) / preventive; format: in vivo
[2] = test system: DON/Acetyl-DON production by Fusarium graminearum; assay: microbe, parasite or virus in culture; format: cell-based; conditions: at 50 μM
Sphaerotheca fuliginea = assay: Example A: Sphaerotheca test (cucumber) / preventive; format: in vivo
Fusarium graminearum [3] = assay: microbe, parasite or virus in culture; format: cell-based; conditions: for Growth inhibition of Fusarium graminearum in %: at 50 μM
Fusarium graminearum [4] = format: in vivo; conditions: in vivo
Plasmopara viticola = assay: Example H: Plasmopara test (grapevines) / preventive; format: in vivo; conditions: in vivo
Septoria tritici = assay: Example J: Septoria tritici test (wheat) / preventive; format: in vivo; conditions: in vivo
Puccinia recondita = assay: Example E: Puccinia test (wheat) / preventive; format: in vivo; conditions: in vivo
Venturia inaequalis = assay: Example I: Venturia test (apples) / preventive; conditions: 100 ppm of active ingredient, preventive spray, evaluated 10 days after inoculation
Method: After the spray coating has dried on, the plants are inoculated with an aqueous conidia suspension of the causal agent of apple scab (Venturia inaequalis) and then remain for 1 day in an incubation cabinet at approximately 20° C. and a relative atmospheric humidity of 100%.
The plants are then placed in a greenhouse at approximately 21° C. and a relative atmospheric humidity of approximately 90%.
The test is evaluated 10 days after the inoculation.

[5] = test system: Fusarium nivale (var. majus); assay: Example K: Fusarium nivale (var. majus) test (wheat) / preventive; format: in vivo; conditions: 500 ppm of active ingredient, preventive spray, evaluated 5 days after inoculation
Method: After the spray coating has been dried, the plants are slightly injured by using a sandblast and afterwards they are sprayed with a conidia suspension of Fusarium nivale (var. majus).
The test is evaluated 5 days after the inoculation.

[6] = Method B (HPLC, reverse phase C18)

**Q.** Which results are given for `CC(=O)Nc1cc(-c2c(-c3ccc(F)cc3)nn3c2OCCC3)ccn1` [Example 2]?
**A.** efficacy (Phytophthora infestans; in vivo): 92%; LogP [1, 6]: 1.22; efficacy (Uromyces appendiculatus): 74%; efficacy (Pyricularia oryzae; in vivo): 90%; efficacy (Pyrenophora teres; in vivo): 100%; efficacy (Leptosphaeria nodorum; in vivo): 88%; Inhibition of DON/AcDON in % [2]: 100%; efficacy (Sphaerotheca fuliginea; in vivo): 100%; Growth inhibition of Fusarium graminearum in % (Fusarium graminearum [3]): 57%

**Q.** Which efficacy (Phytophthora infestans; 100 ppm of active ingredient, tomatoes, preventive spray, evaluated 3 days after inoculation) does the source give for `O=C(Nc1cc(-c2c(-c3ccc(F)cc3)nn3c2OCC3)ccn1)C1CC1` [Example 3, N-{4-[6-(4-fluorophenyl)-2,3-dihydropyrazolo[5,1-b][1,3]oxazol-7-yl]pyridin-2-yl}cyclopropanecarboxamide] here?
**A.** 92%

**Q.** What about the chromatographic logP ([1]; Method B (HPLC, reverse phase C18), read-out: LogP) of the same compound?
**A.** 1.48

**Q.** And the chromatographic logP ([1]; pH 2.7, values in the synthesis examples, HPLC, reverse phase C18, read-out: log P (pH 2.7))?
**A.** 1.48

**Q.** What about the efficacy (Pyricularia oryzae; 500 ppm of active ingredient, rice, preventive spray, evaluated 7 days after inoculation) of the same compound?
**A.** 95%

**Q.** And the efficacy (Pyrenophora teres; 500 ppm of active ingredient, barley, preventive spray, evaluated 7-9 days after inoculation)?
**A.** 100%

**Q.** What about the efficacy (Leptosphaeria nodorum; 500 ppm of active ingredient, wheat, preventive spray, evaluated 7-9 days after inoculation) of the same compound?
**A.** 88%

**Q.** And the inhibition at 50 µM ([2]; Fusarium graminearum, read-out: Inhibition of DON/AcDON in %)?
**A.** 98%

**Q.** What about the efficacy (Sphaerotheca fuliginea; 500 ppm of active ingredient, cucumber, preventive spray, evaluated 7 days after inoculation) of the same compound?
**A.** 93%

**Q.** What about the inhibition at 50 µM (Fusarium graminearum [3]; Fusarium graminearum, read-out: Growth inhibition of Fusarium graminearum in %) of the same compound?
**A.** 57%

**Q.** Which results are given for `CCC(=O)Nc1cc(-c2c(-c3ccccc3)nn3c2OCCC3)ccn1` [Example 6]?
**A.** efficacy (Phytophthora infestans; in vivo): 96%; efficacy (Fusarium graminearum [4]): 100%; LogP [1, 6]: 1.16; efficacy (Plasmopara viticola): 94%; efficacy (Septoria tritici): 100%; efficacy (Uromyces appendiculatus): 89%; efficacy (Pyricularia oryzae; in vivo): 94%; efficacy (Puccinia recondita): 100%; efficacy (Venturia inaequalis): 100%; efficacy (Pyrenophora teres; in vivo): 95%; efficacy (Leptosphaeria nodorum; in vivo): 90%; efficacy (Sphaerotheca fuliginea; in vivo): 98%; efficacy [5]: 100%

**Q.** For `CC(C)C(=O)Nc1cc(-c2c(-c3ccccc3)nn3c2OCCC3)ccn1` [Example 8], which efficacy (Phytophthora infestans; in vivo) is on record?
**A.** 95%

**Q.** What about the efficacy (Fusarium graminearum [4]) of the same compound?
**A.** 100%

**Q.** And the LogP [1, 6]?
**A.** 1.39

**Q.** What about the efficacy (Plasmopara viticola) of the same compound?
**A.** 100%

**Q.** And the efficacy (Septoria tritici)?
**A.** 80%

**Q.** And the efficacy (Uromyces appendiculatus)?
**A.** 94%

**Q.** And the efficacy (Pyricularia oryzae; in vivo)?
**A.** 94%

**Q.** What about the efficacy (Puccinia recondita) of the same compound?
**A.** 100%

**Q.** What about the efficacy (Venturia inaequalis) of the same compound?
**A.** 98%

**Q.** And the efficacy (Pyrenophora teres; in vivo)?
**A.** 95%

**Q.** And the efficacy (Leptosphaeria nodorum; in vivo)?
**A.** 95%

**Q.** And the efficacy (Sphaerotheca fuliginea; in vivo)?
**A.** 100%

**Q.** And the efficacy [5]?
**A.** 93%

**Q.** Which efficacy (Fusarium graminearum [4]) does the source give for `CC(C)CC(=O)Nc1cc(-c2c(-c3ccccc3)nn3c2OCCC3)ccn1` [Example 11] here?
**A.** 100%

**Q.** What about the LogP [1, 6] of the same compound?
**A.** 1.66

**Q.** And the efficacy (Plasmopara viticola)?
**A.** 86%

**Q.** What about the efficacy (Septoria tritici) of the same compound?
**A.** 70%

**Q.** And the efficacy (Uromyces appendiculatus)?
**A.** 94%

**Q.** And the efficacy (Pyricularia oryzae; in vivo)?
**A.** 94%

**Q.** And the efficacy (Puccinia recondita)?
**A.** 100%

**Q.** What about the efficacy (Venturia inaequalis) of the same compound?
**A.** 100%

**Q.** What about the efficacy (Pyrenophora teres; in vivo) of the same compound?
**A.** 100%

**Q.** What about the efficacy (Leptosphaeria nodorum; in vivo) of the same compound?
**A.** 100%

**Q.** What about the efficacy (Sphaerotheca fuliginea; in vivo) of the same compound?
**A.** 100%

**Q.** And the efficacy [5]?
**A.** 100%

**Q.** With `O=C(CC(F)(F)F)Nc1cc(-c2c(-c3ccccc3)nn3c2OCCC3)ccn1` [Example 17] as the compound, how does the efficacy (Phytophthora infestans; in vivo) read?
**A.** 95%

**Q.** And the LogP [1, 6]?
**A.** 1.98

**Q.** What about the efficacy (Plasmopara viticola) of the same compound?
**A.** 100%

**Q.** What about the efficacy (Uromyces appendiculatus) of the same compound?
**A.** 94%

**Q.** What about the efficacy (Pyricularia oryzae; in vivo) of the same compound?
**A.** 94%

**Q.** What about the efficacy (Puccinia recondita) of the same compound?
**A.** 100%

**Q.** What about the efficacy (Venturia inaequalis) of the same compound?
**A.** 100%

**Q.** And the efficacy (Pyrenophora teres; in vivo)?
**A.** 95%

**Q.** What about the efficacy [5] of the same compound?
**A.** 100%

**Q.** Which efficacy (Phytophthora infestans; in vivo) does the source give for `CC(C)CC(=O)Nc1cc(-c2c(-c3ccc(F)cc3)nn3c2OCCC3)ccn1` [Example 25] here?
**A.** 93%

**Q.** And the efficacy (Fusarium graminearum [4])?
**A.** 100%

**Q.** What about the LogP [1, 6] of the same compound?
**A.** 1.82

**Q.** What about the efficacy (Plasmopara viticola) of the same compound?
**A.** 98%

**Q.** And the efficacy (Septoria tritici)?
**A.** 80%

**Q.** What about the efficacy (Uromyces appendiculatus) of the same compound?
**A.** 94%

**Q.** What about the efficacy (Pyricularia oryzae; in vivo) of the same compound?
**A.** 100%

**Q.** And the efficacy (Puccinia recondita)?
**A.** 100%

**Q.** What about the efficacy (Venturia inaequalis) of the same compound?
**A.** 100%

**Q.** And the efficacy (Pyrenophora teres; in vivo)?
**A.** 100%

**Q.** And the efficacy (Leptosphaeria nodorum; in vivo)?
**A.** 95%

**Q.** And the efficacy (Sphaerotheca fuliginea; in vivo)?
**A.** 100%

**Q.** And the efficacy [5]?
**A.** 100%

**Q.** Which results are given for `O=C(Nc1cc(-c2c(-c3ccc(F)cc3F)nn3c2OCCC3)ccn1)C1CCOCC1` [Example 43]?
**A.** efficacy (Fusarium graminearum [4]): 100%; LogP [1, 6]: 1.39; efficacy (Septoria tritici): 88%; efficacy (Uromyces appendiculatus): 92%; efficacy (Pyricularia oryzae; in vivo): 94%; efficacy (Puccinia recondita): 100%; efficacy (Pyrenophora teres; in vivo): 95%; efficacy (Leptosphaeria nodorum; in vivo): 70%; Inhibition of DON/AcDON in % [2]: 100%; efficacy (Sphaerotheca fuliginea; in vivo): 100%; efficacy [5]: 88%; Growth inhibition of Fusarium graminearum in % (Fusarium graminearum [3]): 89%

**Q.** Which efficacy (Phytophthora infestans; in vivo) does the source give for `CCC(=O)N(C(C)=O)c1cc(-c2c(-c3ccc(F)cc3)nn3c2OCCC3)ccn1` [Example 52] here?
**A.** 95%

**Q.** What about the efficacy (Fusarium graminearum [4]) of the same compound?
**A.** 100%

**Q.** What about the LogP ([1]; Method A: HPLC, reverse phase C18, acetonitrile (0.1% formic acid)/water (0.09% formic acid) gradient) of the same compound?
**A.** 2.4

**Q.** What about the efficacy (Plasmopara viticola) of the same compound?
**A.** 84%

**Q.** What about the efficacy (Septoria tritici) of the same compound?
**A.** 100%

**Q.** And the efficacy (Pyricularia oryzae; in vivo)?
**A.** 95%

**Q.** What about the efficacy (Puccinia recondita) of the same compound?
**A.** 95%

**Q.** And the efficacy (Venturia inaequalis)?
**A.** 98%

**Q.** And the efficacy (Pyrenophora teres; in vivo)?
**A.** 95%

**Q.** And the efficacy (Leptosphaeria nodorum; in vivo)?
**A.** 80%

**Q.** What about the efficacy (Sphaerotheca fuliginea; in vivo) of the same compound?
**A.** 95%

**Q.** And the efficacy [5]?
**A.** 100%
